Laboratory results as given in patent US12428395B2, “Heterocyclic compounds as kinase inhibitor and uses thereof” (SPEROGENIX THERAPEUTICS LIMITED, priority 2019, dated 2025).

Target: CHK-1 kinase (Homo sapiens (Human), UniProt O14757)
Assay: CHK-1 Kinase Assay (Z-LYTE based TR-FRET)
Format: biochemical
Settings: for inhibition at 0.1 µM: 0.1 μM compound, read-out: % Inhibition of CHK-1 enzyme activity @ 0.1 μM; for inhibition at 1 µM: 1 μM compound, read-out: % Inhibition of CHK-1 enzyme activity @ 1 μM; for inhibition at 5 µM: 5 μM compound, read-out: % Inhibition of CHK-1 enzyme activity @ 5 μM
Method: IC50 values of compounds for inhibition of CHK-1 kinase or percent inhibition at defined concentrations were determined by Z-LYTE™ based TR-FRET assay. Kinase reactions were performed in a 10 μL volume in low-volume 384-well plates. The concentration of substrate (Ser Thr 19) was maintained at 2 μM in the assay, and the kinase reaction buffer consisted of 50 mM HEPES pH 7.5, 0.01% BRIJ-35, 10 mM MgCl2, 1 mM EGTA, 2 mM DTT. Serially diluted compounds (3-fold) in DMSO (0.5% in final reaction) were incubated with cocktail of CHK-1 kinase (5 ng/ml; Cat #P3040, ThermoFisher), substrate Ser Thr 19, (2 μM; Cat #PV4529, ThermoFisher), ATP (53 μM; Cat #PV3227, ThermoFisher) and buffer. Kinase reactions were allowed to proceed for 1 hour at room temperature after which 5 μL of a 1:256 dilution of Development Reagent A was added. The plate was allowed to incubate at room temperature for 60 minutes before being read on a BMG Pherastar plate reader using the Z-LYTE™ filter block for Z-LYTE™ TR-FRET. The resulting TR-FRET emission ratio was used to calculate percent inhibition by normalizing with the control using the following formula: — [% Inhibition=1−{(% Phosphorylationsample/% Phosphorylationcontrol (0% Inhibition)}·100] For calculation of IC50, the percent inhibition obtained was plotted against the concentration of inhibitor, and the data was fit to a sigmoidal dose-response curve with a variable slope. The IC50 was calculated from the curve.

Sequence of CHK-1 kinase (O14757 whole entry): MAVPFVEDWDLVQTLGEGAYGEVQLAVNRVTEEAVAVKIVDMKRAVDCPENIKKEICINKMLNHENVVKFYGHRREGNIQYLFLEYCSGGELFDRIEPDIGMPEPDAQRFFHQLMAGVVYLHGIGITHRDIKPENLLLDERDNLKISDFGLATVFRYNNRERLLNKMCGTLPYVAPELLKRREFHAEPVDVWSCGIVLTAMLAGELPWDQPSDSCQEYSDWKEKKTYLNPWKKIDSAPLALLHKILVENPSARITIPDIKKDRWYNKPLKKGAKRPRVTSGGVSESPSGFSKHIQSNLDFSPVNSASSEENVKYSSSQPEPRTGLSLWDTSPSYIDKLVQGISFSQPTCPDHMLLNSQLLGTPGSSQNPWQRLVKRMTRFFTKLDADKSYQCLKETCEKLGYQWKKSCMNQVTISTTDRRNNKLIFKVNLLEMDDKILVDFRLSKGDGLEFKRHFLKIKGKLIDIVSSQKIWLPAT

inhibition at 0.1 µM [%] | inhibition at 1 µM [%] | inhibition at 5 µM [%] | IC50 [µM] | Structure (SMILES)
8 | 27 | 65 | – | N#Cc1cnc(Nc2cc(NCC3CCNCC3)c(-c3ccc(Oc4ccccc4)cc3)nn2)cn1 [1.22, 5-(6-(4-phenoxyphenyl)-5-(piperidin-4-ylmethylamino)pyridazin-3-ylamino)pyrazine-2-carbonitrile]
3 | 3 | 15 | – | CN(C)C(=O)c1nnc(Nc2cnc(C#N)cn2)cc1NCC1CCNCC1 [1.32, 6-(5-cyanopyrazin-2-ylamino)-N,N-dimethyl-4-(piperidin-4-ylmethylamino)pyridazine-3-carboxamide]
13 | 48 | 86 | – | Cn1ccc(-c2nnc(Nc3cnc(C#N)cn3)cc2NCC2CCNCC2)n1 [1.28, 5-(6-(1-methyl-1H-pyrazol-3-yl)-5-(piperidin-4-ylmethylamino)pyridazin-3-ylamino)pyrazine-2-carbonitrile]
28 | 78 | 97 | – | CNC(=O)c1nnc(Nc2cnc(C#N)cn2)cc1NCC1CCOCC1 [1.30, 6-(5-cyanopyrazin-2-ylamino)-N-methyl-4-((tetrahydro-2H-pyran-4-yl)methylamino)pyridazine-3-carboxamide]
– | – | – | > 10 | CC(C)(C)OC(=O)N1CCOC(CNc2cc(Nc3cnc(C#N)cn3)nnc2C(F)(F)F)C1 (centres unmarked) [1.5, tert-butyl 2-((6-(5-cyanopyrazin-2-ylamino)-3-(trifluoromethyl)pyridazin-4-ylamino)methyl)morpholine-4-carboxylate]
– | – | – | 5.81 | N#Cc1cnc(Nc2cc(NCC3CCNCC3)c(C(F)(F)F)nn2)cn1 [1.8, 4-((6-(5-cyanopyrazin-2-ylamino)-3-(trifluoromethyl)pyridazin-4-ylamino)methyl)piperidinium 2,2,2-trifluoroacetate]
0 | 9 | 26 | – | COc1cccc(-c2nnc(Nc3cnc(C#N)cn3)cc2NCC2CCNCC2)c1 [1.26, 5-(6-(3-methoxyphenyl)-5-(piperidin-4-ylmethylamino)pyridazin-3-ylamino)pyrazine-2-carbonitrile]
7 | 18 | 41 | – | COc1ccc(-c2nnc(Nc3cnc(C#N)cn3)cc2NCC2CCNCC2)cc1 [1.23, 5-(6-(4-methoxyphenyl)-5-(piperidin-4-ylmethylamino)pyridazin-3-ylamino)pyrazine-2-carbonitrile]
0 | 8 | 34 | – | N#Cc1cnc(Nc2cc(NCC3CCNCC3)c(-c3ccc(CO)cc3)nn2)cn1 [1.27, 5-(6-(4-(hydroxymethyl)phenyl)-5-(piperidin-4-ylmethylamino)pyridazin-3-ylamino)pyrazine-2-carbonitrile]
3 | 5 | 33 | – | N#Cc1cnc(Nc2cc(NCC3CCNCC3)c(-c3ccc(F)cc3)nn2)cn1 [1.21, 5-(6-(4-fluorophenyl)-5-(piperidin-4-ylmethylamino)pyridazin-3-ylamino)pyrazine-2-carbonitrile]
6 | 24 | 59 | – | N#Cc1cnc(Nc2cc(NCC3CCNCC3)c(C3CC3)nn2)cn1 [1.18, 5-(6-cyclopropyl-5-(piperidin-4-ylmethylamino)pyridazin-3-ylamino)pyrazine-2-carbonitrile]
2 | 2 | 34 | – | N#Cc1cnc(Nc2cc(NCC3CCNCC3)c(-c3cccc4[nH]ccc34)nn2)cn1 [1.24, 5-(6-(1H-indol-4-yl)-5-(piperidin-4-ylmethylamino)pyridazin-3-ylamino)pyrazine-2-carbonitrile]
– | – | – | > 10 | N#Cc1cnc(Nc2cc(OCC3CNCCO3)cnn2)cn1 (centres unmarked) [1.9, 5-(5-(morpholin-2-ylmethoxy)pyridazin-3-ylamino)pyrazine-2-carbonitrile]
9 | 9 | 11 | – | Cn1ccc(-c2nnc(Nc3cnc(C#N)cn3)cc2OCC2CNCCO2)n1 (centres unmarked) [1.13, 5-(6-(1-methyl-1H-pyrazol-3-yl)-5-(morpholin-2-ylmethoxy)pyridazin-3-ylamino)pyrazine-2-carbonitrile]
0 | 11 | 25 | – | CC(C)Oc1nnc(Nc2cnc(C#N)cn2)cc1NCC1CCNCC1 [1.31, 5-(6-isopropoxy-5-(piperidin-4-ylmethylamino)pyridazin-3-ylamino)pyrazine-2-carbonitrile]
8 | 3 | 15 | – | CN1CCC(CNc2cnnc(Nc3cnc(C#N)cn3)c2)CC1 [1.10, 5-(5-((1-methylpiperidin-4-yl)methylamino)pyridazin-3-ylamino)pyrazine-2-carbonitrile]
– | 3 | 5 | – | Cn1cc(Nc2cc(NCC3CNCCO3)c(-c3ccccc3)nn2)cn1 (centres unmarked) [1.4, N3-(1-methyl-1H-pyrazol-4-yl)-N5-(morpholin-2-ylmethyl)-6-phenylpyridazine-3,5-diamine]
19 | 60 | 93 | – | N#Cc1cnc(Nc2cc(NCC3CCOCC3)c(C(N)=O)nn2)cn1 [1.29, 6-(5-cyanopyrazin-2-ylamino)-4-((tetrahydro-2H-pyran-4-yl)methylamino)pyridazine-3-carboxamide]
8 | 10 | 42 | – | N#Cc1cnc(Nc2cc(NCC3CCNCC3)c(-c3cccc(N4CCCCC4)c3)nn2)cn1 [1.25, 5-(6-(3-(piperidin-1-yl)phenyl)-5-(piperidin-4-ylmethylamino)pyridazin-3-ylamino)pyrazine-2-carbonitrile]
10 | 35 | 75 | – | N#Cc1cnc(Nc2cc(NCC3CCNCC3)c(OCC(F)(F)F)nn2)cn1 [1.33, 5-(5-(piperidin-4-ylmethylamino)-6-(2,2,2-trifluoroethoxy)pyridazin-3-ylamino)pyrazine-2-carbonitrile]
3 | 12 | 41 | – | N#Cc1cnc(Nc2cc(NCC3CNCCO3)c(C3CC3)nn2)cn1 (centres unmarked) [1.17, 5-(6-cyclopropyl-5-(morpholin-2-ylmethylamino)pyridazin-3-ylamino)pyrazine-2-carbonitrile]
2 | 15 | 45 | – | Cc1nnc(Nc2cnc(C#N)cn2)cc1NCC1CNCCO1 (centres unmarked) [1.14, 5-(6-methyl-5-(morpholin-2-ylmethylamino)pyridazin-3-ylamino)pyrazine-2-carbonitrile]
7 | 8 | 23 | – | Cc1nnc(Nc2cnc(C#N)cn2)cc1NCC1CCNCC1 [1.15, 5-(6-methyl-5-(piperidin-4-ylmethylamino)pyridazin-3-ylamino)pyrazine-2-carbonitrile]
